{"source": "patent US10869846B2", "about": "“N-acetylcysteine amide (NAC amide) in the treatment of diseases and conditions associated with oxidative stress” (SENTIENT LIFESCIENCES, INC., priority 2005, dated 2020)", "key": {"[1]": {"system": "Sprague Dawley rats", "assay": "GSH and CYS levels in tissues after 6Gy total-body x-ray radiation", "assay_type": "in vivo, rat", "conditions": "for CYS level / GSH level / CYS Mean / GSH Mean: 6Gy total-body x-ray, 500 mg/kg orally; for CYS level / GSH level: individual animals; for CYS Mean / GSH Mean: n = 3", "description": "Animal studies: The irradiation of rats was performed at the Radiation Oncology Department of the Phelps County Regional Medical Center in Rolla, Mo., using a 16 MeV beam generated by a Varian linear accelerator, model Clinac 1800, and in accordance with the standards of humane laboratory animal protocols. A 20×20 or 25×25 cm field was used and output factors were checked once a week. Twelve animals were divided into 4 groups each containing 3 animals (Control, XRT, NAC amide+XRT and NAC+XRT). The radiation (XRT) control received whole body irradiation by 6 Gy of 16 MeV electrons. The NAC amide+XRT group received 500 mg/kg/day NAC amide immediately before irradiation and for three days after until sacrifice. The rats were anesthetized and heparinized blood was collected via cardiopuncture. Following sacrifice, liver, lung, brain and spleen were removed and stored at −70° C. until homogenization.\nAll experiments were performed using adult Albino SASCO Sprague Dawley female rats weighing about 250 g, which were purchased from Charles River Laboratories Inc. (Portage, Mich.). Twelve rats were shipped in paper crates (4 in each crate). Rats were delivered with a certificate including serological, bacteriological, pathological parasitological information. They were divided into 4 cages (3 rats in each cage) and kept in a temperature controlled (20° C.) room equipped to maintain a 12 h light-dark cycle. Standard rat chow (Purina rat chow) and tap water were supplied in individual glass bottle and given ad libitum. Water was changed daily. Weights of the animal were taken before giving the NAC amide treatment solution and amount of food eaten and water consumed was not measured because NAC amide was given orally but not in the drinking water or food.\nNAC amide was provided by Novetide Ltd (Haifa Bay, Israel) including certificate of analysis and MSDS (lot #40233-64). NAC amide feeding solution was prepared freshly each day right before the administration by weighing 1.25 g NAC amide solid sample (Type HR-120 electronic balance, A&D Company limited, Japan. S/N: 12202464) and adding into 10 ml PBS solution and put on ice. One ml of this solution was administrated (gavaged) per rat orally by using animal feeding biomedical needles and 3 ml BD Luer-Lok Tip syringes. Rats received one-dose total-body 6 Gy/16 MeV x-ray radiation and 3 rats in each group were held in a covered bucket and received radiation at the same time. Each day at the same time, 500 mg/Kg body weight of NAC amide was administrated to the animals.\nFor GSH and CYS levels, 250 μL tissue homogenate was used to react with 750 μL NPM solution, therefore, the total volume was 1000 μL.\nOxidative Stress Parameters in Animals: After the blood samples were drawn, the animals were perfused by a cold antioxidant buffer first and then liver, brain and kidney samples were collected aseptically, rinsed in ice-cold saline and placed in petri dishes maintained on ice. The tissue samples kept at −70° C. for the GSH, GSSG, and MDA determinations were made.\nGlutathione (GSH) and Glutathione Disulfide (GSSG) Determination: Cells or tissue samples were homogenized on ice and derivatized with N-(1-pyrenyl)-maleimide (NPM). The derivatized samples were injected onto a 3 μm C18 column (Column Engineering) in a reverse phase HPLC system with a mobile phase of 35% water, 65% acetonitrile containing 1 mL/L of acetic acid and o-phosphoric acid (R. Winters, et al., Anal. Biochem., 227:14-21 (1995) and H. H. Draper et al., Free Rad. Biol. Med., 15:353-363 (1993)). Malondialdehyde (MDA) determinations were made as described in J. Gutteridge, Anal. Biochem., 69: 518-526 (1975)."}, "[2]": {"system": "Sprague Dawley rats", "assay": "Catalase activities in tissues after 6Gy total-body x-ray radiation", "assay_type": "in vivo, rat", "conditions": "KIDNEY, 500 mg/kg orally; for Catalase level: individual animals; for Catalase Mean: n = 3"}, "[3]": {"conditions": "Wong et al. 1986; cited from earlier work"}, "[4]": {"system": "mice", "assay": "GSH and cysteine levels after administration to mice", "assay_type": "in vivo", "conditions": "30 minutes after administration"}, "[5]": {"system": "red blood cells (RBCs)", "conditions": "Grinberg et al. 2005; cited from earlier work"}, "[6]": {"system": "PC12 cells", "assay": "LDH assay, glutamate cytotoxicity", "assay_type": "cell-based", "conditions": "10 mM glutamate + 750 μM NAC amide, 24 hours; glutamate alone = 100%", "description": "LDH assay: For the lactate dehydrogenase (LDH) assay, cells were plated at a density of 2.5×10^5 cells/well in a 24 well collagen-coated culture plate and, after 24 h; the medium was replaced with fresh DMEM medium containing the desired concentration of glutamate and NAC amide. After the desired incubation period, the LDH activity released was determined using the kit as described below. For the MTS assay, cells were plated at a density of 10^5 cells/well in a 24 well collagen-coated plate. At the end of the experiments, cell viability was assayed using the kit as described. The LDH activity assay was performed with the CytoTox96® Non-Radioactive Cytotoxicity Assay kit (Promega, Madison, Wis., USA), which quantitatively measured the activity of LDH, a stable cytosolic enzyme that is released upon cell lysis [Technical Bulletin No. 163, Promega]. […] Absorbance data were collected using a BMG microplate reader (BMG Labtechnologies, Inc., Durham, N.C., USA) at 490 nm. LDH leakage was expressed as the percentage (%) of the maximum LDH release in the cells treated with glutamate alone (100%), according to the formula: […]\nTo quantify the protection provided by NAC amide, PC12 cells were exposed to 10 mM glutamate in the presence of NAC amide for 24 hours, and then the amount of LDH released was measured using the LDH assay."}, "[7]": {"conditions": "BRAIN, listed as AD4, 500 mg/kg"}, "[8]": {"conditions": "KIDNEY, listed as AD4, 500 mg/kg"}, "[9]": {"conditions": "LIVER, listed as AD4, 500 mg/kg"}, "[10]": {"conditions": "PLASMA, listed as AD4, 500 mg/kg"}}, "note": "“And” between values parts separate entries of the source, which are not always exact repeats. Identical values can stand only once. Marks after values point to notes of the source that are not given here.", "data": [{"compound": "CC(=O)N[C@@H](CS)C(=O)O", "note": "[NAC, N-acetylcysteine]", "values": [{"measurement": "CYS level", "setting": "[1]; BRAIN, 500 mg/kg", "result": "4.16 nmol/mg and 3.76 nmol/mg and 4.47 nmol/mg"}, {"measurement": "GSH level", "setting": "[1]; BRAIN, 500 mg/kg", "result": "7.32 nmol/mg and 6.74 nmol/mg and 7.15 nmol/mg"}, {"measurement": "CYS Mean", "setting": "[1]; BRAIN", "result": 4.1, "unit": "nmol/mg"}, {"measurement": "GSH Mean", "setting": "[1]; BRAIN", "result": 7.0, "unit": "nmol/mg"}, {"measurement": "CYS level", "setting": "[1]; KIDNEY, 500 mg/kg", "result": "12.23 nmol/mg and 12.16 nmol/mg and 11.03 nmol/mg"}, {"measurement": "GSH level", "setting": "[1]; KIDNEY, 500 mg/kg", "result": "5.95 nmol/mg and 6.44 nmol/mg and 6.33 nmol/mg"}, {"measurement": "CYS Mean", "setting": "[1]; KIDNEY", "result": "11.8** nmol/mg"}, {"measurement": "GSH Mean", "setting": "[1]; KIDNEY", "result": "6.2** nmol/mg"}, {"measurement": "CYS level", "setting": "[1]; LIVER, 500 mg/kg", "result": "1.25 nmol/mg and 1.61 nmol/mg and 1.51 nmol/mg"}, {"measurement": "GSH level", "setting": "[1]; LIVER, 500 mg/kg", "result": "15.23 nmol/mg and 16.80 nmol/mg and 16.93 nmol/mg"}, {"measurement": "CYS Mean", "setting": "[1]; LIVER", "result": 1.5, "unit": "nmol/mg"}, {"measurement": "GSH Mean", "setting": "[1]; LIVER", "result": 16.3, "unit": "nmol/mg"}, {"measurement": "CYS level", "setting": "[1]; LUNG, 500 mg/kg", "result": "1.16 nmol/mg and 2.64 nmol/mg and 2.43 nmol/mg"}, {"measurement": "GSH level", "setting": "[1]; LUNG, 500 mg/kg", "result": "5.19 nmol/mg and 7.24 nmol/mg and 4.95 nmol/mg"}, {"measurement": "CYS Mean", "setting": "[1]; LUNG", "result": 1.9, "unit": "nmol/mg"}, {"measurement": "GSH Mean", "setting": "[1]; LUNG", "result": 5.8, "unit": "nmol/mg"}, {"measurement": "CYS level", "setting": "[1]; PLASMA, 500 mg/kg", "result": "14.64 nmol/mg and 13.75 nmol/mg and 14.36 nmol/mg"}, {"measurement": "GSH level", "setting": "[1]; PLASMA, 500 mg/kg", "result": "7.08 nmol/mg and 6.18 nmol/mg and 6.27 nmol/mg"}, {"measurement": "CYS Mean", "setting": "[1]; PLASMA", "result": "14.2*** nmol/mg"}, {"measurement": "GSH Mean", "setting": "[1]; PLASMA", "result": "6.5**/*** nmol/mg"}, {"measurement": "GSH levels in tissues", "setting": "[1]; after radiation exposure", "result": "does not increase"}, {"measurement": "Catalase level", "setting": "[2]; 500 mg/kg", "result": "5.85 mU/mg and 3.02 mU/mg and 4.36 mU/mg"}, {"measurement": "Catalase Mean", "setting": "[2]", "result": 4.41, "unit": "mU/mg"}, {"measurement": "time increased hepatic GSH levels are maintained", "setting": "[3]", "result": "at least 6 hours"}]}, {"compound": "N-acetylcysteine amide [NAC amide]", "values": [{"measurement": "CYS level", "setting": "[1]; [7]", "result": "4.47 nmol/mg and 4.32 nmol/mg and 4.26 nmol/mg"}, {"measurement": "GSH level", "setting": "[1]; [7]", "result": "7.93 nmol/mg and 7.84 nmol/mg and 6.98 nmol/mg"}, {"measurement": "CYS Mean", "setting": "[1]; BRAIN", "result": 4.4, "unit": "nmol/mg"}, {"measurement": "GSH Mean", "setting": "[1]; BRAIN", "result": "7.6** nmol/mg"}, {"measurement": "CYS level", "setting": "[1]; [8]", "result": "16.91 nmol/mg and 11.09 nmol/mg and 10.81 nmol/mg"}, {"measurement": "GSH level", "setting": "[1]; [8]", "result": "4.39 nmol/mg and 6.22 nmol/mg and 5.02 nmol/mg"}, {"measurement": "CYS Mean", "setting": "[1]; KIDNEY", "result": "12.9** nmol/mg"}, {"measurement": "GSH Mean", "setting": "[1]; KIDNEY", "result": 5.2, "unit": "nmol/mg"}, {"measurement": "CYS level", "setting": "[1]; [9]", "result": "1.51 nmol/mg and 1.53 nmol/mg (2×)"}, {"measurement": "GSH level", "setting": "[1]; [9]", "result": "17.45 nmol/mg and 16.73 nmol/mg and 17.50 nmol/mg"}, {"measurement": "CYS Mean", "setting": "[1]; LIVER", "result": 1.5, "unit": "nmol/mg"}, {"measurement": "GSH Mean", "setting": "[1]; LIVER", "result": "17.2** nmol/mg"}, {"measurement": "CYS level", "setting": "[1]; LUNG, listed as AD4, 500 mg/kg", "result": "1.43 nmol/mg and 1.61 nmol/mg and 0.91 nmol/mg"}, {"measurement": "GSH level", "setting": "[1]; LUNG, listed as AD4, 500 mg/kg", "result": "5.12 nmol/mg and 5.27 nmol/mg and 6.28 nmol/mg"}, {"measurement": "CYS Mean", "setting": "[1]; LUNG", "result": 1.3, "unit": "nmol/mg"}, {"measurement": "GSH Mean", "setting": "[1]; LUNG", "result": 5.6, "unit": "nmol/mg"}, {"measurement": "CYS level", "setting": "[1]; [10]", "result": "16.00 nmol/mg and 15.45 nmol/mg and 15.40 nmol/mg"}, {"measurement": "GSH level", "setting": "[1]; [10]", "result": "7.10 nmol/mg and 7.44 nmol/mg and 7.94 nmol/mg"}, {"measurement": "CYS Mean", "setting": "[1]; PLASMA", "result": "15.6** nmol/mg"}, {"measurement": "GSH Mean", "setting": "[1]; PLASMA", "result": "7.6** nmol/mg"}, {"measurement": "thiol levels in plasma and liver", "setting": "[1]; after radiation exposure", "result": "significantly increases"}, {"measurement": "GSH and cysteine levels", "setting": "[4]", "result": "Increases"}, {"measurement": "Catalase level", "setting": "[2]; listed as AD4, 500 mg/kg", "result": "3.89 mU/mg and 3.46 mU/mg and 4.56 mU/mg"}, {"measurement": "Catalase Mean", "setting": "[2]", "result": "3.97** mU/mg"}, {"measurement": "BuOOH-induced intracellular oxidation in red blood cells", "setting": "[5]", "result": "inhibit"}, {"measurement": "% LDH released", "setting": "[6]", "result": 28.9, "unit": "%"}]}]}
